Assay results as given in ChEMBL document CHEMBL5725285, “Pyrrole six-membered heteroaryl ring derivative, preparation method thereof, and medicinal uses thereof” (2016).

Assays:
[1] = molecular target: T1, Tyrosine-protein kinase JAK1 (Homo sapiens, UniProt P23458); experiment: JAK1 Kinase Assay: TBDIn vitro kinase assays described below can be used to determine the activity of a test compound for inhibiting the activity of JAK1 kinase. The test compounds were dissolved in dimethyl sulfoxide and diluted with water to a serial concentration gradient as required in the experiment. JAK1 substrates (Cell Signaling Technology, Catalog Number: 1305s) and ATP (2 mM) solution …
T1 sequence (P23458 whole entry): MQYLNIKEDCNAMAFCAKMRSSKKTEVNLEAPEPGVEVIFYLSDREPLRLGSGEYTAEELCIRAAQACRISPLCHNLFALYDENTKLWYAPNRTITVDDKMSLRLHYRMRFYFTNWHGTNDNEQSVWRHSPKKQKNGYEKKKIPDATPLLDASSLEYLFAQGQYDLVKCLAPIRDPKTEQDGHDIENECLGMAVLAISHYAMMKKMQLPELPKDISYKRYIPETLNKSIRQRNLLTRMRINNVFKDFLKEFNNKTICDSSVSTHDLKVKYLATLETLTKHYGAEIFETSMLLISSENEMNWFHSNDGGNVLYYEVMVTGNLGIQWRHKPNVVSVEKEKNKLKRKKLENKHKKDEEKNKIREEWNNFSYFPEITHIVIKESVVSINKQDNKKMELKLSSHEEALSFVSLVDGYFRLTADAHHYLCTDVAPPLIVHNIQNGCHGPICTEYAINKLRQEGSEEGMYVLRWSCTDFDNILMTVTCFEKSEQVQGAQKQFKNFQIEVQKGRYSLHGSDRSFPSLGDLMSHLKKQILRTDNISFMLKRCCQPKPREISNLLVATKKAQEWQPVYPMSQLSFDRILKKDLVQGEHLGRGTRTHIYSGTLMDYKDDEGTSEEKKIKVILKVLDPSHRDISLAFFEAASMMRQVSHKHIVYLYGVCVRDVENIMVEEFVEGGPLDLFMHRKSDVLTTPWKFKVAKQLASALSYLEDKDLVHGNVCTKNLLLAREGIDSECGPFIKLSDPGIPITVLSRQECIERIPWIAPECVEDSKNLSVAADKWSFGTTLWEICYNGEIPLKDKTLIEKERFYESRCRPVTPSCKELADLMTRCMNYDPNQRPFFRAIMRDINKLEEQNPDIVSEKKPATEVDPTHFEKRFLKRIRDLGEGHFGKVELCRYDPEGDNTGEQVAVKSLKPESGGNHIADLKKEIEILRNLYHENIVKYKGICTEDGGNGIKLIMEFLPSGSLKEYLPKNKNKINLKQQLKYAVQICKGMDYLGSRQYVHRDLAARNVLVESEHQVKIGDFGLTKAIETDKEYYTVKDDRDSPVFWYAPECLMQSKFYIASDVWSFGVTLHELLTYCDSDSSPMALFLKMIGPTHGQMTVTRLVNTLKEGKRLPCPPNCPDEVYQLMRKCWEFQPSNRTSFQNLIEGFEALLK

[2] = molecular target: T2, Tyrosine-protein kinase JAK3 (Homo sapiens, UniProt P52333); experiment: In Vitro Kinase Assay: In vitro kinase assays described below can be used to determine the activity of a test compound for inhibiting the activity of JAK3 kinase. The test compounds were dissolved in dimethyl sulfoxide and diluted with water to a serial concentration gradient as required by the experiment. JAK3 substrates (Cell Signaling Technology, Catalog Number: 1305s) and ATP (2 mM) solution …
T2 sequence (P52333 whole entry): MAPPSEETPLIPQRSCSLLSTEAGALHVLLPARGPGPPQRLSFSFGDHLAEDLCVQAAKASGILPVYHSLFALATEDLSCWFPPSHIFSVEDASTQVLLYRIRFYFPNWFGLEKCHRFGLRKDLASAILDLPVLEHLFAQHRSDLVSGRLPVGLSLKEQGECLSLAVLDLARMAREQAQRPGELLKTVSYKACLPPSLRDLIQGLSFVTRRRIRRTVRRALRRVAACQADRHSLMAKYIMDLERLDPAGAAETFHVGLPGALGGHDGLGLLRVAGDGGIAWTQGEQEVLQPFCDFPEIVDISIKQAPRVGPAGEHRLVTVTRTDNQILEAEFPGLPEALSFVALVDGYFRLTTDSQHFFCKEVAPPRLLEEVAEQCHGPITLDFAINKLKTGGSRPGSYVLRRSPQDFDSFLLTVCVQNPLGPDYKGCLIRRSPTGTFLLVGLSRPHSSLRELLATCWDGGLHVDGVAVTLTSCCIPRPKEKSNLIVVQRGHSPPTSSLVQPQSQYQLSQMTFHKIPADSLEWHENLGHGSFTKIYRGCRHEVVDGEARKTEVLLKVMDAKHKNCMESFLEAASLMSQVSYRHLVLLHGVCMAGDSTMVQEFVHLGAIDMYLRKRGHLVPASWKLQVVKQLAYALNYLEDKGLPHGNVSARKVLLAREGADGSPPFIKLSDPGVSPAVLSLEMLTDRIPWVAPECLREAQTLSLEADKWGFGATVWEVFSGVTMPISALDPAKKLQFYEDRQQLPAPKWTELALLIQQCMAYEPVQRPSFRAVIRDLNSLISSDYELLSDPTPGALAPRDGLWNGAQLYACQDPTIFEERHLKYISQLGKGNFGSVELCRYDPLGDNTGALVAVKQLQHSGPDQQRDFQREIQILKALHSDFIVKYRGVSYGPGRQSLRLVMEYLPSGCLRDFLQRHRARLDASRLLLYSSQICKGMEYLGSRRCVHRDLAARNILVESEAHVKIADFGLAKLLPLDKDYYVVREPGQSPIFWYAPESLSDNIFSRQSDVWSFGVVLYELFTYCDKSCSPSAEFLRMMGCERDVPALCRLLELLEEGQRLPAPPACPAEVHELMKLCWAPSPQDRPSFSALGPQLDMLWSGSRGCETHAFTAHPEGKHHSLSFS

[3] = molecular target: T1, Tyrosine-protein kinase JAK1; experiment: IC50 values of test compounds was calculated from the data of the test compounds in inhibiting the activity of JAK1 kinase at different concentrations.

Row | IC50 [3] [nM] | SMILES | IC50 [1] [nM] | IC50 [2] [nM]
1 |  | CN(c1ncnc2[nH]ccc12)[C@@H]1C[C@@H]2CCN(C(=O)Nc3nncs3)C[C@@H]2C1 | 40 | 148
2 | 45 | CN(c1ncnc2[nH]ccc12)[C@H]1C[C@@H]2CN(C(=O)[C@H](O)C(F)(F)F)C[C@@H]2C1 |  | 
